Measured values published in patent US20240132955A1, “BENIGN SCAR-FORMING CLEAVABLE LINKERS” (Ultima Genomics, Inc., priority 2021, published 2024).

Tests used:
Type in all cases: biochemical
[1] = tested on: template nucleic acid sequence; experiment: Sequencing assays with different capping reagents (Example 6, FIG. 11); conditions: for fluorescence intensities for subsequent incorporation steps: capping between flows, compared with assay without capping reagents
Protocol: Extension and sequencing performance were tested for a set of labeled nucleotides and capping reagents. The labeled nucleotides used in this example consisted of the dye-linkers as shown in FIG. 9A on each of the four nucleotides. A set of sequencing assays were performed by extending a primer against a template nucleic acid sequence in the presence of alternating flows of single fluorescently labeled nucleotides provided as cycles of U, A, C, and then G. In between each flow, the fluorescent labels were detected, cleaved, and optionally capped with one of ethyl propiolate (EP), iodoacetamide (IAc), methyl methanethiosulfonate (MMTS), or dipyridyl disulfide (DPDS). Each labeled nucleotide flow was then followed by a “dark tap” flow consisting of 100% unlabeled nucleotides to maintain phasing.
FIG. 11 summarizes the results of the sequencing assays in table 1100. Table 1100 provides the results of uridine, adenosine, cytidine, and guanosine incorporation steps performed without any capping agents or in the presence of different capping agents. Assay A illustrates results from sequencing assays performed without capping reagents. Following a high-efficiency first nucleotide incorporation step with labeled uridine, subsequent nucleotide incorporation steps were suppressed, including subsequent uridine additions.

[2] = tested on: template strand comprising the 3′ sequence TCAGTGGTTG; experiment: Sequencing assay with capping reagent DPDS in U dark tap flows (Example 5); conditions: DPDS only in U dark tap flows; 100% labeled U, 10% A, 20% C, 10% G
Excerpt: In this example, a set of labeled nucleotide reagents were contacted to a primer hybridized to a template strand comprising the 3′ sequence TCAGTGGTTG under conditions suitable for extension. Fluorescently labeled adenosine, cytidine, and guanosine nucleotides were of the structure indicated in FIG. 10A, while labeled uridine nucleotides were of the structure provided in FIG. 10B. Different canonical nucleotide types were provided in separate, sequential flows, starting with uridine (U), followed by adenosine (A), cytidine (C), and finally guanosine (G), before repeating the cycle beginning again with U. Flows contained anywhere from 10% to 100% labeled nucleotides, with the remaining nucleotides provided in their natural, unlabeled form. In between each flow, the fluorescent labels were detected, cleaved, and optionally capped. Each labeled nucleotide flow was then followed by a “dark tap” flow consisting of 100% unlabeled nucleotides in order to maintain phasing.
FIG. 10E summarizes the sequencing results of an assay utilizing flows with 100% labeled U, 10% labeled A, 20% labeled C, 10% labeled G, and the capping reagent DPDS. provided in only the U “dark tap” nucleotide flows. […] This was likely due to capping reagent cleavage from the nucleotide scars, as the linker cleavage reagent was likely also active in removing caps from scar moieties. […]

[3] = tested on: template nucleic acid starting with AGTCTTTGGGTT; experiment: Sequencing assays with capping or immolating linkers (Example 9, FIG. 16); conditions: DPDS in U dark tap flows; 100% labeled U, 10% A, 20% C, 10% G; compared to FIG. 16A
Protocol: In this example, a set of sequencing assays were performed by extending a primer against the same template nucleic acid starting with AGTCTTTGGGTT in the presence of alternating flows of single fluorescently labeled nucleotides provided as cycles of U, A, C, and then G. In between each flow, the fluorescent labels were detected, cleaved, and optionally capped with dipyridyl disulfide (DPDS). Each labeled nucleotide flow was then followed by a “dark tap” flow consisting of 100% unlabeled nucleotides to maintain phasing. Furthermore, some assays utilized nucleotides with immolating linkers.
In each figure, the y-axes provide fluorescence intensity following labeled nucleotide incorporation, and the four plots (from top to bottom) separately provide the results of uridine, adenosine, cytidine, and guanosine incorporation steps, with individual cycles progressing from left to right. In particular, a closer look is taken at the first 4 flow-cycles of U-A-C-G, where nucleotides are expected to be incorporated in the order of T-C (cycle 1; U, A, C, G flows being a complete single cycle), A-G (cycle 2), AAA-CCC (cycle 3), AA (cycle 4). Here nucleotides incorporated in each U-A-C-G flow-cycle are separated with square brackets. […]

Compound | fluorescence intensities for subsequent incorporation steps [1] | incorporation efficiency for the next flow (A) [2] | effectiveness as capping reagent ([1]; among EP, IAc, MMTS, DPDS) | fluorescence intensities from subsequent nucleotide incorporations, comparison among capping assays ([1]; assays B-E) | labeled A incorporation [3]
C#CC(=O)OCC [EP, ethyl propiolate] | high intensities | – | – | – | –
NC(=O)CI [IAc, iodoacetamide] | high intensities | – | – | – | –
dipyridyl disulfide [DPDS] | high intensities | increased the incorporation efficiency for the next flow | most effective | highest intensities | greatly enhanced
